The values that follow come from patent publication EP4471049A1 (Zealand Pharma A/S, priority 2023, dated 2024).

*1 amine or outer side, *2 acyl side, *3 side chain or, on linkers, in order; H or OH if unused. Where a SMILES comes first, the peptide text is derived from it. Bridges are numbered along the chain shown (N, C = ends). [ ]: non-standard residue; d: D form. The star is where a group is joined. 2Nal = N[C@@H](Cc1ccc2ccccc2c1)C(=O)O; AEF = NCCOc1ccc(C[C@H](N)C(=O)O)cc1; X1 = O=C(Cc1ccc(CN[*:1])cc1)[*:2]; 3Pal = N[C@@H](Cc1cccnc1)C(=O)O; αMeL = CC(C)C[C@](C)(N)C(=O)O; CH2COCH2 = O=C(C[*:1])C[*:2]; NMeS = CN[C@@H](CO)C(=O)O; Pyrrolidide = C1CCN(*)C1; Dab = NCC[C@H](N)C(=O)O; βAla = NCCC(=O)O

The assay addresses T1, human IL-23R (Homo sapiens, UniProt Q5VWK5).
T1 sequence (Q5VWK5 22-629): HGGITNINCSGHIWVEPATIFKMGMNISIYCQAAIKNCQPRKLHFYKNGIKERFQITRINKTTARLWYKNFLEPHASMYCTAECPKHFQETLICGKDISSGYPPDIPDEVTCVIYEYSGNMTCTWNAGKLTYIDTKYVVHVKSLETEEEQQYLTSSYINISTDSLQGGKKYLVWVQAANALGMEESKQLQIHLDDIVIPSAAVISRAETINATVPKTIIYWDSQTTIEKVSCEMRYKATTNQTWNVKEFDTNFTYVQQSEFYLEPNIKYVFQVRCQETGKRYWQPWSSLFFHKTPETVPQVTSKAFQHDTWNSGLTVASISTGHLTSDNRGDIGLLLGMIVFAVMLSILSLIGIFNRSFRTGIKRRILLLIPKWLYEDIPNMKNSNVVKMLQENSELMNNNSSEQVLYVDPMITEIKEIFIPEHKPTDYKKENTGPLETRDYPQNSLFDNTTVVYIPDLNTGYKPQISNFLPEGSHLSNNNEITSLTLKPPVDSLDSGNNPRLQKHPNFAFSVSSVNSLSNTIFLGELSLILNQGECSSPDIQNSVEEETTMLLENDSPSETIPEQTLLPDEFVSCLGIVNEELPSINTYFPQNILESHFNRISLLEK
Nature of the assay: biochemical. The following applies: for Emax: read-out: % displacement (hIL-23R binding). The source says:
The compound binding affinity for IL-23R was estimated by the ability of compounds to displace a fluorophore-labelled reference compound from the human IL-23R. The assay principle relies on Bioluminescence Resonance Energy Transfer (BRET) between a fluorophore-labelled reference compound binding to the IL-23R part of a fusion protein consisting of the IL-23R fused to a Nanoluc luciferase enzyme (Nanoluc). The Nanoluc is placed in the N-terminus in close proximity to the binding domain of the ligand. Upon close proximity between the fluorophore of the fluorophore-labelled compound and the Nanoluc of the fusion protein, bioluminescence energy generated from conversion of a Nanoluc substrate, is transferred to the fluorophore resulting in an increase in BRET. In presence of an unlabelled compound, the unlabelled compound displaces the fluorophore-labelled peptide from its binding site resulting in a decrease in BRET. The concentration for which half of the fluorophore-labelled peptide is displaced by the unlabelled compound depends on the affinity of the compound for the IL-23R, and is termed the IC50 concentration.
The plasmid also contained a gene to confer resistance for the antibiotic hygromycin. A cell line stably expressing the Nluc-IL23R fusion protein was generated by transfection of HEK293 cells with the expression plasmid and selected with hygromycin for 3 weeks in Growth medium consisting of DMEM w/ Glutamax-I containing, 10% V/V FBS, 1% V/V P/S, 1 mM Sodium Pyruvate, and 1X NEAA, and 0.3 mg/mL hygromycin. The remaining cells were propagated and considered a stable expressing Nluc-IL23R fusion protein pool clone.
Cells expressing the Nluc-IL23R fusion protein were expanded in Growth medium and membranes prepared by homogenization of a cell pellet from 18 T175 flasks (4 °C in subsequent steps). The cell pellet was lysed Tris 10 mM, 7.5, 1 mM EDTA and protease inhibitors (Complete, Roche) and homogenized using a 15 mL glass-dounce by 50 strokes. The homogenate was spun at spin @1500 rpm for 10 min, the supernatant transferred to SV-34 tubes and spun at 40000g for 20 min at 4 °C to pellet the crude membranes. The supernatant was then removed, the pellet resuspended in 5 mL buffer containing 50 mM HEPES pH 7.4, 5 mM EGTA, and 5 mM MgCl2, and homogenized. Aliquots of the resuspended and homogenized membranes containing the Nluc-IL23R fusion protein were stored at -80 °C until use.
The plate was sealed with light impermeable plate seals, and incubated on an orbital shaker 400 rpm for 2 hours at room temperature. To determine the BRET ratio, the plate seal was removed and 25 µL of the Nanoluc substrate (Promega N1572) diluted 1:500 was added to each well and incubated for 1-2 minutes on an orbital shaker at 400 rpm. […] The BRET ratio was calculated as the fluorescence from the TAMRA/nanoluc bioluminescence.
Compound potency (IC50) and maximal displacement (% displacement) were estimated by computer-aided curve fitting using a 4-parameter logistic (4PL) non-linear model. […]
In this application, the inventors provide the data as IC50 values.

The IC50 is the midpoint of a concentration-inhibition curve. Read a low IC50 as greater potency in that assay.

As for `CC(C)C[C@]1(C)NC(=O)[C@H](Cc2ccc3ccccc3c2)NC(=O)[C@H](Cc2ccc(OCCN)cc2)NC(=O)[C@@H]2CCNC(=O)CC[C@H](NC(=O)[C@H](CO)NC(=O)Cc3ccc(cc3)CNC(=O)CC[C@@H](C(=O)N[C@@H](CCN)C(N)=O)NC1=O)C(=O)N[C@@H](Cc1c[nH]c3ccccc13)C(=O)N[C@@H](CCC(=O)N1CCCC1)C(=O)N2` [Ref 146, [4-Aminomethyl-phenylacetyl](1c)*SE(2c)W[Q(pyrrolidin)][Dab](2c)[Y(2-aminoethoxy)][2-Nal][2-Me-Leu]E(1c)[Dab]-[NH2], reference compound] ([X1]SEWE(Pyrrolidide)[Dab][AEF][2Nal][αMeL]E[Dab]-NH2; lactam 3-6, N-10), the “% displacement (hIL-23R binding)” value is given as 105%.

For `CNC(=O)[C@H](Cc1cccnc1)NC(=O)[C@H](CCN)NC(=O)[C@@H]1CCC(=O)NCc2ccc(cc2)CC(=O)N[C@@H](CO)C(=O)N[C@H]2CCC(=O)NCC[C@H](NC(=O)[C@H](CCCCNC(C)=O)NC(=O)[C@H](Cc3c[nH]c4ccccc34)NC2=O)C(=O)N[C@@H](Cc2ccc(OCCN)cc2)C(=O)N[C@@H](Cc2ccc3ccccc3c2)C(=O)N[C@@](C)(CC(C)C)C(=O)N1` [Compound 24, [4-Aminomethyl-phenylacetyl](1c)*SE(2c)W[K(Ac)][Dab](2c)[Y(2-aminoethoxy)][2-Nal][2-Me-Leu]E(1c)[Dab][3-(3-Pyridyl)-Ala]-[NHMe]] ([X1]SEWK(Ac)[Dab][AEF][2Nal][αMeL]E[Dab][3Pal]-NHMe; lactam 3-6, N-10), the “% displacement (hIL-23R binding)” value is given as 97% and the IC50 turned out to be 0.014 nM.

As to `CC(C)C[C@]1(C)NC(=O)[C@H](Cc2ccc3ccccc3c2)NC(=O)[C@H](Cc2ccc(OCCN)cc2)NC(=O)[C@@H]2CSCC(=O)CSC[C@H](NC(=O)[C@H](CO)NC(=O)CCNC(=O)[C@H](Cc3cccnc3)NC(=O)CC[C@@H](C(=O)N[C@H](CCCNC(=N)N)C(N)=O)NC1=O)C(=O)N[C@@H](Cc1c[nH]c3ccccc13)C(=O)N[C@@H](CCC(N)=O)C(=O)N2` [Compound 2, [3-(3-Pyridyl)-Ala](4c)*[3-Aminopropanoyl]SC(2a)WQC(2a)[Y(2-aminoethoxy)][2-Nal][2-Me-Leu]E(4c)[{d}R]-[NH2]] ([3Pal][βAla]SCWQC[AEF][2Nal][αMeL]E[dR]-NH2; linker 4-7 via CH2COCH2; lactam N-11), the “% displacement (hIL-23R binding)” value turned out to be 103% and it took 2.9 nM to reach half-maximal inhibition (IC50).

Consider `CC(C)C[C@]1(C)NC(=O)[C@H](Cc2ccc3ccccc3c2)NC(=O)[C@H](Cc2ccc(OCCN)cc2)NC(=O)[C@@H]2CSCC(=O)CSC[C@H](NC(=O)[C@H](CO)NC(=O)[C@H](Cc3cccnc3)NC(=O)CCNC(=O)CC[C@@H](C(=O)N[C@H](CCCNC(=N)N)C(N)=O)NC1=O)C(=O)N[C@@H](Cc1c[nH]c3ccccc13)C(=O)N[C@@H](CCC(N)=O)C(=O)N2` [Compound 1, [3-Aminopropanoyl](4c)*[3-(3-Pyridyl)-Ala]SC(2a)WQC(2a)[Y(2-aminoethoxy)][2-Nal][2-Me-Leu]E(4c)[{d}R]-[NH2]] ([βAla][3Pal]SCWQC[AEF][2Nal][αMeL]E[dR]-NH2; linker 4-7 via CH2COCH2; lactam N-11), for which the “% displacement (hIL-23R binding)” value was 105% and the 50% inhibitory concentration (IC50) turned out to be 5.4 nM.

Consider `CNC(=O)[C@H](Cc1cccnc1)NC(=O)[C@H](CCN)NC(=O)[C@@H]1CCC(=O)NCc2ccc(cc2)CC(=O)N[C@@H](C)C(=O)N[C@H]2CCC(=O)NCC[C@H](NC(=O)[C@H](CCC(N)=O)NC(=O)[C@H](Cc3c[nH]c4ccccc34)NC2=O)C(=O)N[C@@H](Cc2c[nH]c3ccccc23)CC(=O)N[C@@H](Cc2ccc3ccccc3c2)C(=O)NC(C)(C)C(=O)N1` [Compound 45, [4-Aminomethyl-phenylacetyl](1c)*AE(2c)WQ[Dab](2c)[beta-hTrp][2-Nal][Aib]E(1c)[Dab][3-(3-Pyridyl)-Ala]-[NHMe]], for which the “% displacement (hIL-23R binding)” value is reported as 104% and the IC50 was found to be 4.2 nM.

With `CNC(=O)[C@H](Cc1cccnc1)NC(=O)[C@H](CCN)NC(=O)[C@@H]1CCC(=O)NCc2ccc(cc2)CC(=O)N[C@@H](CO)C(=O)N[C@H]2CCC(=O)NCC[C@H](NC(=O)[C@H](C)NC(=O)[C@H](Cc3c[nH]c4ccccc34)NC2=O)C(=O)N[C@@H](Cc2ccc(OCCN)cc2)C(=O)N[C@@H](Cc2ccc3ccccc3c2)C(=O)N[C@@](C)(CC(C)C)C(=O)N1` [Compound 22, [4-Aminomethyl-phenylacetyl](1c)*SE(2c)WA[Dab](2c)[Y(2-aminoethoxy)][2-Nal][2-Me-Leu]E(1c)[Dab][3-(3-Pyridyl)-Ala]-[NHMe]] ([X1]SEWA[Dab][AEF][2Nal][αMeL]E[Dab][3Pal]-NHMe; lactam 3-6, N-10), the Emax worked out at 96%.

On to `CNC(=O)[C@H](Cc1cccnc1)NC(=O)[C@H](CCN)NC(=O)[C@@H]1CCC(=O)NCc2ccc(cc2)CC(=O)N[C@@H](C)C(=O)N[C@H]2CCC(=O)NCC[C@H](NC(=O)[C@H](CCC(N)=O)NC(=O)[C@H](Cc3c[nH]c4ccccc34)NC2=O)C(=O)N[C@@H](Cc2ccc(OCCN)cc2)C(=O)N[C@@H](Cc2c[nH]c3ncccc23)C(=O)NC(C)(C)C(=O)N1` [Compound 44, [4-Aminomethyl-phenylacetyl](1c)*AE(2c)WQ[Dab](2c)[Y(2-aminoethoxy)][7-AzaTrp][Aib]E(1c)[Dab][3-(3-Pyridyl)-Ala]-[NHMe]], for which the IC50 was found to be 0.27 nM and the Emax came to 100%.

In the case of `CNC(=O)[C@H](Cc1cccnc1)NC(=O)[C@H](CCN)NC(=O)[C@@H]1CCC(=O)NCc2ccc(cc2)CC(=O)N(C)[C@@H](CO)C(=O)N[C@H]2CCC(=O)NCC[C@H](NC(=O)[C@H](CCC(N)=O)NC(=O)[C@H](Cc3c[nH]c4ccccc34)NC2=O)C(=O)N[C@@H](Cc2ccc(OCCN)cc2)C(=O)N[C@@H](Cc2ccc3ccccc3c2)C(=O)N[C@@](C)(CC(C)C)C(=O)N1` [Compound 18, [4-Aminomethyl-phenylacetyl](1c)*[N-Me-Ser]E(2c)WQ[Dab](2c)[Y(2-aminoethoxy)][2-Nal][2-Me-Leu]E(1c)[Dab][3-(3-Pyridyl)-Ala]-[NHMe]] ([X1][NMeS]EWQ[Dab][AEF][2Nal][αMeL]E[Dab][3Pal]-NHMe; lactam 3-6, N-10), the IC50 was found to be 0.015 nM and the Emax is 96%.

Regarding `CNC(=O)[C@H](Cc1cccnc1)NC(=O)[C@H](CCN)NC(=O)[C@@H]1CCC(=O)NCc2ccc(cc2)CC(=O)N[C@@H](C)C(=O)N[C@H]2CCC(=O)NCC[C@H](NC(=O)[C@H](CCC(N)=O)NC(=O)[C@H](Cc3c[nH]c4ccccc34)NC2=O)C(=O)N[C@@H](Cc2c[nH]c3c(F)cccc23)C(=O)N[C@@H](Cc2ccc3ccccc3c2)C(=O)NC(C)(C)C(=O)N1` [Compound 47, [4-Aminomethyl-phenylacetyl](1c)*AE(2c)WQ[Dab](2c)[7-F-Trp][2-Nal][Aib]E(1c)[Dab][3-(3-Pyridyl)-Ala]-[NHMe]], the Emax was found to be 103%.
